A short description of data set [1]: slurry stability experiments (solid form by PXRD). The class given is physicochemical. The note with it: for Final Form: slurry in 2-propanol/water, Aw 0.9. The protocol:
Slurry experiments were conducted as follows. The indicated starting form of PF-07104091 was transferred to a 2 mL vial. The indicated solvent or solvent mixture was added to obtain a slurry at the specified temperature (Table 14). Additional solids were added as necessary to ensure a sufficiently thick slurry. A magnetic stir bar was added and the vial was tightly capped to prevent solvent loss. The resulting slurry was left to stir at the specified temperature. Aliquots were pulled from the slurry periodically or after a certain duration. Solids were separated from the liquid by centrifuge filtration and the solids were characterized by powder x-ray diffraction. […] (ambient), and 40° C.

Data set [2] in a line: moisture sorption (DVS) study. The class given is physicochemical.

Molecules are shown by their SMILES.

For the compound `COCc1cc(C(=O)Nc2cc([C@H]3CC[C@@H](OC(=O)NC(C)C)C3)[nH]n2)n(C)n1` [Form 1, (1R,3S)-3-[3-({[3-(methoxymethyl)-1-methyl-1H-pyrazol-5-yl]carbonyl}amino)-1H-pyrazol-5-yl]cyclopentyl propan-2-ylcarbamate], the “Final Form” value in data set [1] (4 °C) and in data set [1] (ambient) was “Form 3” in each case.
Turning to `COCc1cc(C(=O)Nc2cc([C@H]3CC[C@@H](OC(=O)NC(C)C)C3)[nH]n2)n(C)n1` [PF-07104091 monohydrate (Form 3), (1R,3S)-3-[3-({[3-(methoxymethyl)-1-methyl-1H-pyrazol-5-yl]carbonyl}amino)-1H-pyrazol-5-yl]cyclopentyl propan-2-ylcarbamate], the “thermodynamic stability of the solid form” value in data set [1] (at 4° C., ˜25° C. (ambient), and 40° C.) is on record as “thermodynamically most stable form”.
Regarding `COCc1cc(C(=O)Nc2cc([C@H]3CC[C@@H](OC(=O)NC(C)C)C3)[nH]n2)n(C)n1` [PF-07104091 (Form 2), (1R,3S)-3-[3-({[3-(methoxymethyl)-1-methyl-1H-pyrazol-5-yl]carbonyl}amino)-1H-pyrazol-5-yl]cyclopentyl propan-2-ylcarbamate], the “solid form of the post moisture sorption material” value in data set [2] (PXRD after DVS) is on record as “no change in solid form”. The mass gain in data set [2] (at 60% RH) is given as about 0.7%; in data set [2] (at 75% RH), about 1%; in data set [2] (at 90% RH) it was about 1.6%. Besides, the hygroscopicity entry in data set [2] (moisture sorption (DVS)) is on record as “slightly hygroscopic”.

The record behind these values is patent US20240076287A1, “SOLID FORMS OF A CDK2 INHIBITOR” (PFIZER INC., priority 2020, published 2024).
